Source: the RepoRT retention time repository (doi:10.1016/j.scitotenv.2015.08.078)

experiment: RP, Waters ACQUITY UPLC BEH C18, 100 × 2.1 mm, 1.7 µm, 0.3 mL/min, estimated dead time 0.73 min; A: water + 0.1% formic acid, pH 3; B: methanol + 0.1% formic acid, pH 3; gradient (min/%B) 0/10 14/90 16/90 18/10; details: stereoisomer not certain

SMILES	LC retention time [min]
O=C(O)c1ccccc1O [Salicylic acid]	4.4
CNC1(c2ccccc2Cl)CCCCC1=O (stereo not drawn) [Ketamine]	4.88
CC(C)=CC1C(C(=O)OCN2C(=O)C3=C(CCCC3)C2=O)C1(C)C (stereo not drawn) [Tetramethrin]	12.8
Cc1c(NC=O)c(=O)n(-c2ccccc2)n1C [4-formylamino-Antipyrine]	3.78
CCCCNC(=O)NS(=O)(=O)c1ccc(C)cc1 [Tolbutamide]	8.33
CNC(C)Cc1ccc2c(c1)OCO2 (stereo not drawn) [MDMA]	3.79
CN(C)CCCN1c2ccccc2Sc2ccc(C(F)(F)F)cc21 [Triflupromazine]	10.6
CCCCC(C)C(OC(=O)CC(CC(=O)O)C(=O)O)C(CC(C)CCCCCCC(O)CC(O)C(C)N)OC(=O)CC(CC(=O)O)C(=O)O (stereo not drawn) [Fumonisin B2]	11
CCC(=O)OCC(=O)C1(OC(=O)CC)C(C)CC2C3CCC4=CC(=O)C=CC4(C)C3(Cl)C(O)CC21C (stereo not drawn) [Beclometasone dipropionate]	12.3
COC(=O)C=C(C)OP(=O)(OC)OC [Mevinphos trans]	4.95
COP(=S)(OC)Oc1ccc(SC)c(C)c1 [Fenthion]	11.7
CNC(=O)ON=CC(C)(C)S(C)(=O)=O [Aldicarb sulfone]	4.8
CCOc1ccc2c(c1)C(C)=CC(C)(C)N2 [Ethoxyquin]	9.64
O=C(O)COC(=O)Cc1ccccc1Nc1c(Cl)cccc1Cl [Aceclofenac]	10.3
CCCSP(=O)(OCC)Oc1cnn(-c2ccc(Cl)cc2)c1 (stereo not drawn) [Pyraclofos]	12
CCCCC1C(=O)N(c2ccccc2)N(c2ccc(O)cc2)C1=O (stereo not drawn) [Oxyphenylbutazone]	9.97
CC(C)(C)NCC(O)c1ccc(O)c(CO)c1 (stereo not drawn) [Salbutamol]	2.03
CCC1CCCC(OC2CCC(N(C)C)C(C)O2)C(C)C(=O)C2=CC3C(C=C(C)C4CC(OC5OC(C)C(OC)C(OC)C5OC)CC43)C2CC(=O)O1 (stereo not drawn) [Spinosyn D]	12.5
CC(C)N1C(=O)c2ccccc2NS1(=O)=O [Bentazon]	3.68
CON(C)C(=O)Nc1ccc(Cl)c(Cl)c1 [Linuron]	10.3
CCOC1Oc2ccc(OS(C)(=O)=O)cc2C1(C)C (stereo not drawn) [Ethofumesate]	9.89
CCNC(C)Cc1ccc2c(c1)OCO2 (stereo not drawn) [MDEA]	4.27

SMILES	LC retention time [min]
CC1(C)CN=C(NN=C(C=Cc2ccc(C(F)(F)F)cc2)C=Cc2ccc(C(F)(F)F)cc2)NC1 [Hydramethylnon]	12.8
CC12CCC3C4CCC(=O)C=C4CCC3C1CCC2O (stereo not drawn) [Nandrolone. beta-nortestosterone]	10.6
CC(C)Oc1cccc(NC(=O)c2ccccc2C(F)(F)F)c1 [Flutolanil]	10.5
CC1=C(C(=O)O)N2C(=O)C(NC(=O)C(N)c3ccc(O)cc3)C2SC1 (stereo not drawn) [Cefadroxil]	4.91
CCCCOC(=O)C(C)Oc1ccc(Oc2ccc(C(F)(F)F)cn2)cc1 (stereo not drawn) [Fluaziflop-P-butyl]	13.1
CC(=O)Nc1c(C)n(C)n(-c2ccccc2)c1=O [4-Acetylamino-Antipyrine]	3.87
O=C(NC(CO)C(O)c1ccc([N+](=O)[O-])cc1)C(Cl)Cl (stereo not drawn) [Chloramphenicol]	5.3
CCCCc1c(C)nc(NCC)[nH]c1=O [Ethirimol]	8.99
CNC(C)C(=O)c1ccccc1 (stereo not drawn) [Methcathinone]	2.95
CC(C(=O)O)c1cccc(C(=O)c2ccccc2)c1 (stereo not drawn) [Ketoprofen]	10.3
CCC(C(=O)O)C1OC(C(C)C(O)C(C)C(=O)C(CC)C2OC3(C=CC(O)C4(CCC(C)(C5CCC(O)(CC)C(C)O5)O4)O3)C(C)CC2C)C(C)CC1C (stereo not drawn) [Narasin]	16.5
COc1cc2c(c3oc(=O)c4c(c13)CCC4=O)C1(O)C=COC1O2 (stereo not drawn) [Aflatoxin M1]	7.15
COC(=O)c1ccccc1S(=O)(=O)NC(=O)N(C)c1nc(C)nc(OC)n1 [Tribenuron methyl]	7.52
c1ccc(Nc2ccccc2)cc1 [Diphenylamine]	10.5
CCOC(=O)NCCOc1ccc(Oc2ccccc2)cc1 [Fenoxycarb]	12.4
COP(=O)(OC)Oc1ccc(SC)c(C)c1 [Fenthion oxon]	9.48
CNC(=O)Oc1cc(C)c(SC)c(C)c1 [Methiocarb]	8.89
O=c1[nH]c2c(c(=O)n1C1CCCCC1)CCC2 [Lenacil]	8.9
CC1Cc2c(Cl)cc(C(=O)NC(Cc3ccccc3)C(=O)O)c(O)c2C(=O)O1 (stereo not drawn) [Ochratoxin A]	9.15
CC12Cc3cn[nH]c3CC1CCC1C2CCC2(C)C1CCC2(C)O (stereo not drawn) [Stanozolol]	12
CC(C)OC(=O)C(C(=O)OC(C)C)=C1SCCS1 [Isoprothiolane]	10.4
CC1=C(C(=O)Nc2ccccc2)SCCO1 [Carboxin]	7.77

SMILES	LC retention time [min]
CN1COCN(Cc2cnc(Cl)s2)C1=N[N+](=O)[O-] [Thiamethoxam]	3.27
CCNc1nc(Cl)nc(NCC)n1 [Simazine]	7.91
CC(C)Cc1ccc(C(C)C(=O)O)cc1 (stereo not drawn) [Ibuprofen]	12.4
COC(=O)C(C)Oc1ccc(Oc2ncc(C(F)(F)F)cc2Cl)cc1 (stereo not drawn) [Haloxyfop-methyl]	12.6
O=C1CN=C(c2ccccc2F)c2cc(Cl)ccc2N1 [Desalkyl-flurazepam]	10
COC(=O)C(C)N(C(=O)c1ccco1)c1c(C)cccc1C (stereo not drawn) [Furalaxyl]	10
CCCC1CC(C(=O)NC(C(C)Cl)C2OC(SC)C(O)C(O)C2O)N(C)C1 (stereo not drawn) [Clindamycin]	7.04
CNC(=O)ON=CC(C)(C)SC [Aldicarb]	6.2
O=C(NC(=O)c1c(F)cccc1F)Nc1ccc(Cl)cc1 [Diflubenzuron]	11.2
CCOC(=O)C1CC(=O)C(=C(O)C2CC2)C(=O)C1 (stereo not drawn) [Trinexapac-ethyl]	7.6
CCC(C)C1OC2(C=CC1C)CC1CC(CC=C(C)C(OC3CC(OC)C(OC4CC(OC)C(NC)C(C)O4)C(C)O3)C(C)C=CC=C3COC4C(O)C(C)=CC(C(=O)O1)C34O)O2 (stereo not drawn) [Emamectin B1a]	13.8
CC1(C(=O)Nc2ccc(O)c(Cl)c2Cl)CCCCC1 [Fenhexamid]	11.5
CC1(C)OC2CC3C4CCC5=CC(=O)C=CC5(C)C4(F)C(O)CC3(C)C2(C(=O)CO)O1 (stereo not drawn) [Triamcinolone acetonide]	9.42
CNC(=O)Oc1cc(C)c(S(C)=O)c(C)c1 (stereo not drawn) [Methiocarb sulfoxide]	4.6
COP(=O)(OC)Oc1ccc(S(C)=O)c(C)c1 (stereo not drawn) [Fenoxon sulfoxide]	5.14
CNC(=O)ON=CC(C)(C)S(C)=O (stereo not drawn) [Aldicarb sulfoxide]	2.54
Cc1c(N)c(=O)n(-c2ccccc2)n1C [4-amino-antipyrine]	2.92
Cc1c(Cl)cccc1Nc1ccccc1C(=O)O [Tolfenamic acid]	11
COCCOc1ccccc1S(=O)(=O)NC(=O)Nc1nc(OC)nc(OC)n1 [Cinosulfuron]	6.25
COc1cnc(NS(=O)(=O)c2ccc(N)cc2)nc1 [Sulfameter]	3.2
CC(=NC#N)N(C)Cc1ccc(Cl)nc1 [Acetamiprid]	4.99
CCN1CCN(c2cc3c(cc2F)c(=O)c(C(=O)O)cn3C2CC2)CC1 [Enrofloxacin]	4.58

SMILES	LC retention time [min]
OC(Cn1cncn1)(c1ccc(F)cc1)c1ccccc1F (stereo not drawn) [Flutriafol]	8.93
CCN(CC)C(=O)N1CCN(C)CC1 [Diethylcarbamazine]	2.52
Nc1cnn(-c2ccccc2)c(=O)c1Cl [Chloridazon (Pyrazon)]	4.82
CCS(=O)(=O)c1cccnc1S(=O)(=O)NC(=O)Nc1nc(OC)cc(OC)n1 [Rimsulfuron]	5.84
CC1=NNC(=O)N(N=Cc2cccnc2)C1 [Pymetrozine]	2.25
CC(C)c1c(C(=O)Nc2ccccc2)c(-c2ccccc2)c(-c2ccc(F)cc2)n1CCC(O)CC(O)CC(=O)O (stereo not drawn) [Atorvastatin]	12
Cc1c(Nc2ncccc2C(=O)O)cccc1C(F)(F)F [Flunixin]	9.31
CNC(=N[N+](=O)[O-])NCc1cnc(Cl)s1 [Clothianidin]	4.13
CNC(=O)Oc1ccccc1OC(C)C [Propoxur]	7.36
COc1cc(OC)nc(NC(=O)NS(=O)(=O)N(C)S(C)(=O)=O)n1 [Amidosulfuron]	4.59
CCOP(=O)(SC(C)CC)SC(C)CC (stereo not drawn) [Cadusafos]	12.2
Cc1nnc(-c2ccccc2)c(=O)n1N [Metamitron]	4.51
CCOc1cc(C(C)(C)C)ccc1C1COC(c2c(F)cccc2F)=N1 (stereo not drawn) [Etoxazole]	13.5
O=C(OC1CC2CCC(N2)C1C(=O)O)c1ccccc1 (stereo not drawn) [Norbenzoylecgonine]	5.1
C=CC=CCC1=C(C)C(OC(=O)C2C(C=C(C)C)C2(C)C)CC1=O (stereo not drawn) [Pyrethrin I]	13.7
CC1=C(C(=O)Nc2ccccc2)S(=O)(=O)CCO1 [Oxycarboxin]	5.41
CC1(C)CCC(Cc2ccc(Cl)cc2)C1(O)Cn1cncn1 (stereo not drawn) [Metconazole]	11.9
O=C(Nc1ccccc1)Nc1cnns1 [Thidiazuron]	7.36
CCCC(=NOCC)C1=C(O)CC(C2CCCSC2)CC1=O (stereo not drawn) [Cycloxydime]	11.3
CC(C)(C)C(O)C(Cc1ccc(Cl)cc1)n1cncn1 (stereo not drawn) [Paclobutrazol]	10.8
CNC(=O)Oc1cccc2c1OC(C)(C)O2 [Bendiocarb]	7.43
Cc1ncc([N+](=O)[O-])n1C [Dimetridazole]	2.68
